Measurements taken from ChEMBL document CHEMBL5316318, “Structural Modification and Pharmacological Evaluation of Substituted Quinoline-5,8-diones as Potent NSD2 Inhibitors” (J Med Chem, 2023).
Activity calls are given as the source filed them. No cut-off for these calls is given here.

Legend:
[1] = Tmax in ICR mouse at 3 mg/kg, po measured for 24 hrs by LC-MS/MS analysis; format: ADME, organism-based; conditions: in vivo
[2] = Half life in ICR mouse at 1 mg/kg, iv measured for 24 hrs by LC-MS/MS analysis; format: ADME, organism-based; conditions: in vivo
[3] = target: Protein arginine N-methyltransferase 1 (Homo sapiens, UniProt Q99873); assay: Inhibition of PRMT1 (unknown origin) by AlphaLISA assay
Chain of Protein arginine N-methyltransferase 1 (Q99873 whole entry, the tested form may be a part): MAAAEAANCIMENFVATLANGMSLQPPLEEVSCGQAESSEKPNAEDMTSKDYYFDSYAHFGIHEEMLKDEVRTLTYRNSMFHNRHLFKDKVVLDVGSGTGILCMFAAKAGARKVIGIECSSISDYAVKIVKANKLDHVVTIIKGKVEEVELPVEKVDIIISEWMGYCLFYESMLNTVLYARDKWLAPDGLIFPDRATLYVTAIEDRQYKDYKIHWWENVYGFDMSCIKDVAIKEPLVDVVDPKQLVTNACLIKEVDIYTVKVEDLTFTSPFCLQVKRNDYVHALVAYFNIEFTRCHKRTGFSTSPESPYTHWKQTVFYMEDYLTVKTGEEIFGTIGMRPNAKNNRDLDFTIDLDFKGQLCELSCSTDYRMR

[4] = target: Histone-lysine N-methyltransferase NSD2 (Homo sapiens) (UniProt O96028); assay: Binding affinity to human recombinant NSD2 (941 to 1240 residues) at 200 uM by CPMG based NMR analysis
Chain of Histone-lysine N-methyltransferase NSD2 (Homo sapiens) (O96028 whole entry, the tested form may be a part): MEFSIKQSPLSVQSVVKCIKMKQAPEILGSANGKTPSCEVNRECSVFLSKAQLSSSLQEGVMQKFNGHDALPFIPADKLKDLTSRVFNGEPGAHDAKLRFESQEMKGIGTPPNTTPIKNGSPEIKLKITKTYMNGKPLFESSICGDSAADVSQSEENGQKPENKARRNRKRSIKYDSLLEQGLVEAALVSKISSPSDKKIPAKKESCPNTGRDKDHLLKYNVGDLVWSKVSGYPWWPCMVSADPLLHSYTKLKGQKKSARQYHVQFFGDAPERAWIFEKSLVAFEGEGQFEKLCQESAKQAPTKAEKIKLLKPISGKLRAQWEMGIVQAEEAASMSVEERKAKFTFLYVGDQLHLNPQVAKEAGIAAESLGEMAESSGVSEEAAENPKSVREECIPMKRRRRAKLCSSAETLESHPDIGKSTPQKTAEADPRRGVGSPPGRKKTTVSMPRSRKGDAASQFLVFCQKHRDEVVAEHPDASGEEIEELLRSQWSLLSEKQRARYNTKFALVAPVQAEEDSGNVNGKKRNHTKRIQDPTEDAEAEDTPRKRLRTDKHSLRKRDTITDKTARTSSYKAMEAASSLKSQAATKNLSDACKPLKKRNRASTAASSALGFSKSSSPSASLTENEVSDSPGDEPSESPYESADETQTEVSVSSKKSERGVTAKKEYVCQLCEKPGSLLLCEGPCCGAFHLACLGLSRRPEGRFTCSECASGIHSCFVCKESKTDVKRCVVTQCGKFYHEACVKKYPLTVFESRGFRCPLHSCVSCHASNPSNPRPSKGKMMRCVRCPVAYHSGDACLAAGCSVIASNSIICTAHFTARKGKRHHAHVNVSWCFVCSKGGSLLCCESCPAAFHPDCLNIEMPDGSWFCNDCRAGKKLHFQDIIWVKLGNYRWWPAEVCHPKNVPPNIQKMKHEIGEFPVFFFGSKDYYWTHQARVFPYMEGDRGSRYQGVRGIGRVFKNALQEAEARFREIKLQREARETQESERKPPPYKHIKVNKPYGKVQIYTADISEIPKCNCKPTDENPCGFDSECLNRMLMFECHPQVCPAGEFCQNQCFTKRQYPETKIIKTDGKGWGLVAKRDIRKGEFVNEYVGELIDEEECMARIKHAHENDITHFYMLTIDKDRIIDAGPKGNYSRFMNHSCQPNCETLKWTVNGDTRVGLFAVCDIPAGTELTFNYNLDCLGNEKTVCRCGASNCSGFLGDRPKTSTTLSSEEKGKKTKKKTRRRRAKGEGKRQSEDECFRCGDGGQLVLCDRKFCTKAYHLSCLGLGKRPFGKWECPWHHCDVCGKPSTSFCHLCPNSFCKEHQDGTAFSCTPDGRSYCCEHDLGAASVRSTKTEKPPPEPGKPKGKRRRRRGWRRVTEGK

OPM-2 = assay: Antiproliferative activity against NSD2 translocated human OPM-2 cells assessed as inhibition of cell growth incubated for 6 days by CCK-8 assay; format: functional, cell-based; conditions: OPM-2, 144 h
OCI-AML2 = assay: Antiproliferative activity against human OCI-AML2 cells harboring wild type NSD2 assessed as inhibition of cell growth incubated for 6 days by CCK-8 assay; format: functional, cell-based; conditions: OCI-AML2, 144 h
MOLM-13 = assay: Antiproliferative activity against human MOLM-13 cells harboring wild type NSD2 assessed as inhibition of cell growth incubated for 6 days by CCK-8 assay; format: functional, cell-based; conditions: MOLM-13, 144 h
Daudi = assay: Antiproliferative activity against human Daudi cells assessed as inhibition of cell growth incubated for 6 days by CCK-8 assay; format: functional, cell-based; conditions: 144 h
[5] = target: Neural cell adhesion molecule 1 (Homo sapiens) (UniProt P13591); assay: Inhibition of NCAM1 transcriptional activation in human KMS-11 cells assessed as reduction in NCAM1 mRNA expression at 0.5 uM by qRT-PCR analysis; format: cell-based
Chain of Neural cell adhesion molecule 1 (Homo sapiens) (P13591 whole entry): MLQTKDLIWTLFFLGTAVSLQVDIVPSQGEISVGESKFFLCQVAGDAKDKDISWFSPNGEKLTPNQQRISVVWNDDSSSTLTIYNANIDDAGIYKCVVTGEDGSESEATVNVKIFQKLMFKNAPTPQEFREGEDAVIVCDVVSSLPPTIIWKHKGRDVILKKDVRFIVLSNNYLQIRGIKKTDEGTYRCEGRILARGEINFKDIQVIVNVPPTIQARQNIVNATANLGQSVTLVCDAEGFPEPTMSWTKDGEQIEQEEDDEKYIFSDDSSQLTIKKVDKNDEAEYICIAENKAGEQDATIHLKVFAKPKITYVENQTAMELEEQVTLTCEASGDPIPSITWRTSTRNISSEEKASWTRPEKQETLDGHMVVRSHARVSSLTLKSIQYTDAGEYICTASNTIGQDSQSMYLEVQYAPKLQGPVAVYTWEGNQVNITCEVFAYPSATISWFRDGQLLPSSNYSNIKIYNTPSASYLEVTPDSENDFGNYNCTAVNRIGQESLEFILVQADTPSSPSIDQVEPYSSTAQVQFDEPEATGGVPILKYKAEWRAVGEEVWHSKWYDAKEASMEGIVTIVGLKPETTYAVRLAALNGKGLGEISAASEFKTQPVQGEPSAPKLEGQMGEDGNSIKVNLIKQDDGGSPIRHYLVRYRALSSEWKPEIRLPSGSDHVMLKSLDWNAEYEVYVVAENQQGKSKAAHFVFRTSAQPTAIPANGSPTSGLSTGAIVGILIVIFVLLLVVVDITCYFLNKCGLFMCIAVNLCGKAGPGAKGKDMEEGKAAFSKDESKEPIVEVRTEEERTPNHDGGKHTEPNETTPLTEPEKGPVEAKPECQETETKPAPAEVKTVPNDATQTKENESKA

[6] = target: Basement membrane-specific heparan sulfate proteoglycan core protein (Homo sapiens) (UniProt P98160); assay: Inhibition of HSPG2 transcriptional activation in human KMS-11 cells assessed as reduction in HSPG2 mRNA expression at 0.5 uM by qRT-PCR analysis; format: cell-based
[7] = target: Basement membrane-specific heparan sulfate proteoglycan core protein (Homo sapiens) (UniProt P98160); assay: Inhibition of HSPG2 transcriptional activation in human KMS-11 cells assessed as reduction in H3K36me2 level in promoter region by ChIP-qPCR analysis; format: cell-based
KMS-11 [8] = assay: Induction of apoptosis in human KMS-11 cells assessed as early apoptotic cells at 0.2 uM incubated for 72 hrs by Annexin V-FITC/PI staining based flow cytometry analysis (reference value: 3.96%); format: functional
KMS-11 [9] = assay: Induction of apoptosis in human KMS-11 cells assessed as early apoptotic cells at 0.8 uM incubated for 72 hrs by Annexin V-FITC/PI staining based flow cytometry analysis (reference value: 3.96%); format: functional
KMS-11 [10] = assay: Induction of apoptosis in human KMS-11 cells assessed as dead cells at 0.8 uM incubated for 72 hrs by Annexin V-FITC/PI staining based flow cytometry analysis (reference value: 6.48%); format: functional
KMS-11 [11] = assay: Antitumor activity against human KMS-11 cells xenografted in SCID mouse assessed as tumor growth inhibition at 150 mg/kg, po administered daily for 21 days and measured every 3 days relative to control; format: functional; conditions: KMS-11, 504 h, time 21 day, read-out: TGI
[12] = Toxicity in SCID mouse xenografted with human KMS-11 cells assessed as adverse effects at 75 to 150 mg/kg, po administered daily for 21 days and measured every 3 days; format: organism-based; conditions: in vivo, 504 h, dose 75-150 mg/kg, time 21 day

CC#CC(=O)NC12CC(NC3=C(Cl)C(=O)c4ncccc4C3=O)(C1)C2
Tmax [1]: 1.5 h
half-life [2]: 8.53 h
IC50 [3]: > 10 µM
Activity [4]: Active
IC50 (OPM-2): 2.09 µM
IC50 (OCI-AML2): 2.6 µM
IC50 (MOLM-13): 3.17 µM
IC50 (Daudi): 12.8 µM
inhibition [5]: Active
inhibition [6]: Active
inhibition [7]: Active
Activity (KMS-11 [8]): 4.34%
Activity (KMS-11 [9]): 19.3%
Activity (KMS-11 [10]): 5.98%
inhibition in vivo at 150 mg/kg (KMS-11 [11]): 58.4%
Activity [12]: Non-Toxic
